The record followed here is patent publication US20090176841A1, “NOVEL 6-5 SYSTEM BICYCLIC HE[…] ITS PHAR[…]” (Sanwa Kagaku Kenkyusho Co., Ltd., priority 2006, published 2009).

Experiment [1] has as its target T1, recombinant human TRα (Homo sapiens, UniProt P10827).
T1 sequence (P10827 190-410 isoform P10827-2): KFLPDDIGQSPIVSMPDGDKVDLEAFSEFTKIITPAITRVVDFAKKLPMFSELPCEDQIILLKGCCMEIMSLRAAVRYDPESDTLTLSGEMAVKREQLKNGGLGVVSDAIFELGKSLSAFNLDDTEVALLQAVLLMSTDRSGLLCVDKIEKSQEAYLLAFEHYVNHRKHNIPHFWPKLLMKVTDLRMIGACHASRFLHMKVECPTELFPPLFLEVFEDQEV
The experiment is described as follows: biochemical. As to conditions: TR[…] (IC50, nM), displacement of 125I-T3 (0.16 nM). The text has this: (§1) Thyroid Hormone Receptor Binding Test
(§2) (1) Preparation of Fused Protein Having Ligand Binding Region of Thyroid Hormone Receptor
(§3) Human TRα and human TRβ ligand binding domains were expressed in Escherichia coli as a fused protein (recombinant human TRα or recombinant human TRβ) having TRα and TRβ ligand binding domains at a C-terminus of His-Patch Thioredoxin using the His-Patch Thioredoxin fusing protein expressing system (Invitrogen).
(§4) A nucleotide sequence of a region corresponding to the fused protein was confirmed by DNA sequence analysis.
(§5) Escherichia coli by which the fused protein had been subjected to expression inducement were collected by a centrifugation method, and ground using ultrasound to prepare a ground cell liquid containing the fused protein. The ground cell liquid was centrifuged at 15000 rpm for about 30 minutes, and a solution containing the fused protein from the supernatant using a nickel chelating column was obtained. An NAP-10 column was replaced with a binding solution (20 mM, Tris-HCl, 0.15 M NaCl, 8% Glycerol, 0.1% BSA, 1 mM EDTA, 10 mM 2-melcaptethanol). The resulting binding solution containing the fused protein was frozen and stored at −70° C. or lower.
(§6) (2) Binding Affinity for Thyroid Hormone Receptor
(§7) This binding solution (60 μL) was added to all wells of a 96-well plate (MILLIPORE MultiScreen-HV, Cat. No. MANVN4550, Lot. No. F4SN86613). […] 80 μL of SephadexG25 was added to each well of MultiScreen-HV (MILLIPORE, Cat. No. MANVN4550, Lot. No. F4SN86613), the binding solution was added to sufficiently swell, and this was centrifuged at 600×g for 1 minute to prepare a column of SephadexG25. […] Again, 25 μL untreated binding solution was overlaid on the SephadexG25 column, and this was immediately centrifuged at 600×g for 1 minute. […] As an amount of recombinant human TRα or recombinant human TRβ used in the present test, an amount by which proper radioactivity is obtained in a range where an addition amount of the receptor and an amount of the complex in the above test system, was used.
(§8) This was divided by the total complex amount to calculate a binding rate as the following equation:
(§9) Binding rate=remaining complex amount/total complex amount

The target in experiment [2] is T2, recombinant human TRβ (Homo sapiens, UniProt P10828).
T2 sequence (P10828 244-461): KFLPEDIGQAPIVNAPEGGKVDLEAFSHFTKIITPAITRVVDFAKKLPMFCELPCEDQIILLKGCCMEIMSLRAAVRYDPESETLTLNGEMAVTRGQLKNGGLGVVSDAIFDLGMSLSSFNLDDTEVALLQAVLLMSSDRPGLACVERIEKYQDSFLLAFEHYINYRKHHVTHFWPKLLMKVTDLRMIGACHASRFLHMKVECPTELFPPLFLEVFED
Briefly: biochemical. As to conditions: TR[…] (IC50, nM), displacement of 125I-T3 (0.16 nM).
From the text: as §1, §2, §3, §4, §5, §6, §7, §8, §9

Turning to `Cc1ccc(NC(=O)CC(=O)O)c2cc(C)n(Cc3ccc(O)c(C(O)c4ccc(F)cc4)c3)c12` (single isomer, unassigned; (+)) [Example 130, (+)-N-(1-{3-[(4-fluorophenyl)hydroxymethyl]-4-hydroxybenzyl}-2,7-dimethyl-1H-indol-4-yl)malonamic acid], the IC50 came to 5200 nM in experiment [1] and 150 nM in experiment [2].

For the compound `Cc1ccc(NC(=O)CC(=O)O)c2cc(C)n(Cc3ccc(O)c(C(O)c4ccc(F)cc4)c3)c12` (stereo not shown) [Example 129, N-(1-{3-[(4-fluorophenyl)hydroxymethyl]-4-hydroxybenzyl}-2,7-dimethyl-1H-indol-4-yl)malonamic acid], the results for the IC50 in experiment [1] and in experiment [2] were 260 nM and 7.5 nM, respectively.

As to `Cc1ccc(NC(=O)CC(=O)O)c2cc(C)n(Cc3ccc(O)c(C(C)C)c3)c12` [Example 86], the IC50 came to 670 nM in experiment [1] and 16 nM in experiment [2].

Consider `CCC(C)c1cc(Cn2c(C)cc3c(NC(=O)C(=O)O)ccc(C)c32)ccc1O` (stereo not shown) [Example 122], for which the results for the IC50 in experiment [1] and in experiment [2] were 24 nM and 2.6 nM, respectively.

In the case of `CCOC(=O)CC(=O)Nc1ccc(C)c2c1cc(C)n2Cc1ccc(O)c(C(O)c2ccc(F)cc2)c1` (stereo not shown) [Example 57, Ethyl N-(1-{3-[(4-fluorophenyl)hydroxymethyl]-4-hydroxybenzyl}-2,7-dimethyl-1H-indol-4-yl)malonamate], the IC50 in experiment [1] stood at 3800 nM; in experiment [2], 24 nM.

Turning to `CCOC(=O)C(=O)Nc1ccc(C)c2c1ccn2Cc1ccc(O)c(C(O)c2ccc(F)cc2)c1` (stereo not shown) [Example 56, Ethyl N-(1-{3-[(4-fluorophenyl)hydroxymethyl]-4-hydroxybenzyl}-7-methyl-1H-indol-4-yl)oxamate], the concentration for half-maximal inhibition (IC50) in experiment [1] came out at 480 nM; in experiment [2] it was 84 nM.

`CCOC(=O)CC(=O)Nc1ccc(C)c2c1cc(C(F)(F)F)n2Cc1ccc(O)c(C(C)C)c1` [Example 26]: the 50% inhibitory concentration (IC50) stood at 3400 nM in experiment [1] and 310 nM in experiment [2].

On to `Cc1c(C)n(Cc2ccc(O)c(C(C)C)c2)c2cccc(NC(=O)C(=O)O)c12` [Example 83], for which the half-inhibitory concentration (IC50) in experiment [1] turned out to be 85 nM; in experiment [2] it was 27 nM.
